Drawing on patent publication EP4748837A1, “AROMATIC AMIDE DERIVATIVE, AND PREPARATION METHOD THEREFOR AND USE THEREOF” (Zhejiang Hisun Pharmaceutical Co., Ltd., priority 2023, dated 2025), this text covers IC50 for 20 compounds.

pIC50: −log10 of the molar value.

One assay deals with OVCAR-3 cells. Put plainly: Inhibition of OVCAR-3 cell proliferation (CellTiter-Glo cell viability). In kind it is cell-based. Conditions: Homo sapiens; OVCAR-3 cells (TP53 R248Q mutation), 72 hours culture with compound; read-out: IC50. The procedure:
Influences of the compounds of the present invention on OVCAR-3 cell proliferation were determined by the following method. OVCAR-3 cells (containing TP53 R248Q mutation) were purchased from the Cell Bank of Shanghai Institute of Biochemistry and Cell Biology, Chinese Academy of Sciences, and cultured in an RPMI 1640 culture medium containing 10% fetal bovine serum, 100 U penicillin and 100 µg/mL streptomycin. A cell viability was determined by a CellTiter-Glo® Luminescent Cell Viability Assay kit (Promega, article number G7573).
(§1) An experimental method was operated according to steps in the instruction of the kit, which was briefly described as follows: a test compound was dissolved in DMSO first to prepare a 10 mM stock solution, then the stock solution was diluted with the culture medium to prepare a test sample, and a final concentration of the compound was in a range of 1000 nM-0.015 nM. Cells in a logarithmic growth phase were inoculated into a 96-well cell culture plate at a density of 1000 cells per well, cultured in a 5% CO2 incubator at 37°C overnight, and then the test compound was added to continuously culture for 72 hours. After the culture was ended, 50 uL of CellTiter-Glo detection solution was added to each well , shaken for 5 minutes, and then allowed to stand for 10 minutes, and subsequently, a luminance value of each well of the sample was read by a microplate reader in a Luminescence mode. By comparing with the numerical value of a control group (0.3% DMSO), a percentage inhibition rate of the compound at each concentration point was calculated, and then nonlinear regression analysis was carried out based on concentration logarithm-inhibition rate of the compound in GraphPad Prism 5 software, so as to obtain an IC50 value of the compound for inhibiting the cell proliferation, which was as shown in Table 1. Table 1 IC50 data of the compounds of the present invention for inhibiting OVCAR-3 cell proliferation
(Cellular ATP, detected with luciferase, serves as a proxy for viable cell number.)

The next assay relates to HT-29 cells. Put plainly: Inhibition of HT-29 cell proliferation (CellTiter-Glo cell viability). The class given is cell-based. Conditions: Homo sapiens; HT-29 cells (TP53 R273H mutation), 120 hours culture with compound; read-out: IC50. How it is done:
Influences of the compounds of the present invention on HT-29 cell proliferation were determined by the following method. HT-29 cells (containing TP53 R273H mutation) were purchased from the Cell Bank of Shanghai Institute of Biochemistry and Cell Biology, Chinese Academy of Sciences, and cultured in a McCOY's 5A culture medium containing 10% fetal bovine serum, 100 U penicillin and 100 µg/mL streptomycin. A cell viability was determined by a CellTiter-Glo® Luminescent Cell Viability Assay kit (Promega, article number G7573).
as §1, with “for 120” for “for 72”, “each well,” for “each well ,”, “Table 2.” for “Table 1.”, “Table 2” for “Table 1”, “inhibiting HT-29” for “inhibiting OVCAR-3”

In general, pIC50 refers to the IC50 on a negative log10 scale, so that one unit is a factor of ten. Take `CCS(=O)(=O)Nc1ccc(C(=O)Nc2ccc(-c3ncco3)c(N3CCC(F)(F)CC3)c2)c(N2CCC3(CC2)CC3)c1` [Example 7, N-(3-(4,4-difluoropiperidin-1-yl)-4-(oxazol-2-yl)phenyl)-4-(ethylsulfonamido)-2-(6-azaspiro[2.5]octan-6-yl)benzamide]: the negative-log IC50 (pIC50) in the assay on OVCAR-3 cells was 7.95; with HT-29 cells, 7.74.

Consider `CCS(=O)(=O)Nc1ccc(C(=O)Nc2ccc(-c3ncnn3C)c(N3CCC(F)(F)CC3)c2)c(N2CCC3(CC2)CC3)c1` [Example 38, N-(3-(4,4-difluoropiperidin-1-yl)-4-(1-methyl-1H-1,2,4-triazol-5-yl)phenyl)-4-(ethylsulfon amido)-2-(6-azaspiro[2.5]octan-6-yl)benzamide], for which the negative logarithm of the IC50 (pIC50) with OVCAR-3 cells was 7.57.

Turning to `CCS(=O)(=O)Nc1ccc(C(=O)Nc2ccc(-c3ncn(C)n3)c(NC3CC(F)(F)C3)c2)c(N2CCC3(CC2)CC3)c1` [Example 54, N-(3-((3,3-difluorocyclobutyl)amino)-4-(1-methyl-1H-1,2,4-triazol-3-yl)phenyl)-4-(ethylsulfonamido)-2-(6-azaspiro[2.5]octan-6-yl)benzamide], the negative-log IC50 (pIC50) in the assay with OVCAR-3 cells is 7.41.

For `CCS(=O)(=O)Nc1ccc(C(=O)Nc2ccc(-c3cccnc3)c(N3CCC(F)(F)CC3)c2)c(N2CCC3(CC2)CC3)c1` [Example 9, N-(3-(4,4-difluoropiperidin-1-yl)-4-(pyridin-3-yl)phenyl)-4-(ethylsulfonamido)-2-(6-azaspiro[2.5]octan-6-yl)benzamide], the pIC50 was 7.82 in the assay on OVCAR-3 cells and 7.84 in the assay on HT-29 cells.

`[2H]C([2H])([2H])Oc1ccc(NC(=O)c2ccc(NS(=O)(=O)CC)cc2N2CCC3(CC2)CC3)cc1N1CCC(F)(F)CC1` [Example 57, N-(3-(4,4-difluoropiperidin-1-yl)-4-(methoxy-d3)phenyl)-4-(ethylsulfonamido)-2-(6-azaspiro[2.5]octan-6-yl)benzamide]: the pIC50 was 8.06 in the assay on OVCAR-3 cells and 8.35 in the assay on HT-29 cells.

With `CCS(=O)(=O)Nc1ccc(C(=O)Nc2ccc(C(=O)NC)c(N3CCC(F)(F)CC3)c2)c(N2CCC3(CC2)CC3)c1` [Example 3, 2-(4,4-difluoropiperidin-1-yl)-4-(4-(ethylsulfonamido)-2-(6-azaspiro[2.5]octan-6-yl)benzamido)-N-methylbenzamide], the results for the pIC50 with OVCAR-3 cells and in the assay with HT-29 cells were 8.43 and 8.40, respectively.

Consider `CCS(=O)(=O)Nc1ccc(C(=O)Nc2ccc(-n3ccnc3)c(C3=CCC(F)(F)CC3)c2)c(N2CCC3(CC2)CC3)c1` [Example 22, N-(4',4'-difluoro-6-(1H-imidazol-1-yl)-2',3',4',5'-tetrahydro-[1,1'-biphenyl]-3-yl)-4-(ethylsulfonamido)-2-(6-azaspiro[2. 5]octan-6-yl)benzamide], for which the negative logarithm of the IC50 (pIC50) in the assay on OVCAR-3 cells is 7.70; in the assay with HT-29 cells it was 7.77.

Regarding `CCS(=O)(=O)Nc1ccc(C(=O)Nc2ccc(-n3ccnc3)c(OC3CC(F)(F)C3)c2)c(N2CCC3(CC2)CC3)c1` [Example 24, N-(3-(3,3-difluorocyclobutoxy)-4-(1H-imidazol-1-yl)phenyl) -4-(ethylsulfonamido)-2-(6-azaspiro[2.5]octan-6-yl)benzamide], the pIC50 in the assay with OVCAR-3 cells is 7.75.

With `CCS(=O)(=O)Nc1ccc(C(=O)Nc2ccc(-c3cnccn3)c(N3CCC(F)(F)CC3)c2)c(N2CCC3(CC2)CC3)c1` [Example 11, N-(3-(4,4-difluoropiperidin-1-yl)-4-(pyrazin-2-yl)phenyl)-4-(ethylsulfonamido)-2-(6-azaspiro[2.5]octan-6-yl)benzamide], the negative logarithm of the IC50 (pIC50) is 7.75 in the assay with OVCAR-3 cells and 7.79 in the assay on HT-29 cells.

In the case of `CCS(=O)(=O)Nc1ccc(C(=O)Nc2ccc(-c3nnco3)c(N3CCC(F)(F)CC3)c2)c(N2CCC3(CC2)CC3)c1` [Example 40, N-(3-(4,4-difluoropiperidin-1-yl)-4-(1,3,4-oxadiazol-2-yl)phenyl)-4-(ethylsulfonamido)-2-(6-azaspiro[2.5]octan-6-yl)benz amide], the pIC50 with OVCAR-3 cells was 8.22; with HT-29 cells, 8.09.

As to `CCS(=O)(=O)Nc1ccc(C(=O)Nc2ccc(-c3ncco3)c(OC3CC(F)(F)C3)c2)c(N2CCC3(CC2)CC3)c1` [Example 23, N-(3-(3,3-difluorocyclobutoxy)-4-(oxazol-2-yl)phenyl)-4-(ethylsulfonamido)-2-(6-azaspiro [2.5]octan-6-yl)benzamide], the pIC50 in the assay with OVCAR-3 cells was 7.29.

Take `CCS(=O)(=O)Nc1ccc(C(=O)Nc2ccc(C(C)=O)c(N3CCC(F)(F)CC3)c2)c(N2CCC3(CC2)CC3)c1` [Example 5, N-(4-acetyl-3-(4,4-difluoropiperidin-1-yl)phenyl)-4-(ethylsulfonamido)-2-(6-azaspiro[2.5]octan-6-yl)benzamide]: the negative logarithm of the IC50 (pIC50) in the assay on OVCAR-3 cells is 7.48.

With `CCS(=O)(=O)Nc1ccc(C(=O)Nc2ccc(-c3ccncc3)c(N3CCC(F)(F)CC3)c2)c(N2CCC3(CC2)CC3)c1` [Example 8, N-(3-(4,4-difluoropiperidin-1-yl)-4-(pyridin-4-yl)phenyl)-4-(ethylsulfonamido)-2-(6-azaspiro[2.5]octan-6-yl)benzamide], in the assay with OVCAR-3 cells, the pIC50 was 7.67.

As to `CCS(=O)(=O)Nc1ccc(C(=O)Nc2ccc(-c3ccccn3)c(N3CCC(F)(F)CC3)c2)c(N2CCC3(CC2)CC3)c1` [Example 10, N-(3-(4,4-difluoropiperidin-1-yl)-4-(pyridin-2-yl)phenyl)-4-(ethylsulfonamido)-2-(6-azaspiro[2.5]octan-6-yl)benzamide], the pIC50 in the assay on OVCAR-3 cells was 7.76; in the assay with HT-29 cells it was 7.57.

Turning to `CCS(=O)(=O)Nc1ccc(C(=O)Nc2ccc(C(=O)N(C)C)c(N3CCC(F)(F)CC3)c2)c(N2CCC3(CC2)CC3)c1` [Example 4, 2-(4,4-difluoropiperidin-1-yl)-4-(4-(ethylsulfonamido)-2-(6-azaspiro[2.5]octan-6-yl)benzamido)-N,N-dimethylbenzamide], the pIC50 with OVCAR-3 cells is 7.72.

For the compound `CCS(=O)(=O)Nc1ccc(C(=O)Nc2ccc(Oc3ccccn3)c(N3CCC(F)(F)CC3)c2)c(N2CCC3(CC2)CC3)c1` [Example 55, N-(3-(4,4-difluoropiperidin-1-yl)-4-(pyridin-2-yloxy)phenyl) -4-(ethylsulfonamido)-2-(6-azaspiro[2.5]octan-6-yl)benzamide], the negative-log IC50 (pIC50) with OVCAR-3 cells is 7.35.

On to `CCS(=O)(=O)Nc1ccc(C(=O)Nc2ccc(-c3nnn(C)n3)c(N3CCC(F)(F)CC3)c2)c(N2CCC3(CC2)CC3)c1` [Example 35, N-(3-(4,4-difluoropiperidin-1-yl)-4-(2-methyl-2H-tetrazol-5-yl)phenyl)-4-(ethylsulfonamido)-2-(6-azaspiro[2.5]octan-6-y 1)benzamide], for which the pIC50 in the assay with OVCAR-3 cells is 7.95; in the assay with HT-29 cells, 8.21.

With `CCS(=O)(=O)Nc1ccc(C(=O)Nc2ccc(CO)c(N3CCC(F)(F)CC3)c2)c(N2CCC3(CC2)CC3)c1` [Example 6, N-(3-(4,4-difluoropiperidin-1-yl)-4-(hydroxymethyl)phenyl)-4-(ethylsulfonamido)-2-(6-azaspiro[2.5]octan-6-yl)benzamide], the pIC50 with OVCAR-3 cells is 7.95; in the assay with HT-29 cells it was 7.88.

On to `O=C(Nc1ccc(-n2ccnn2)c(N2CCC(F)(F)CC2)c1)c1ccc(NS(=O)(=O)C2CC2)cc1N1CCC2(CC1)CC2` [Example 32, 4-(cyclopropanesulfonamido)-N-(3-(4,4-difluoropiperidin-1-yl)-4-(1H-1,2,3-triazol-1-yl)phenyl)-2-(6-azaspiro[2.5]octan-6-yl)benzamide], for which the pIC50 in the assay with OVCAR-3 cells is 8.23; with HT-29 cells it was 8.33.

In the case of `CCS(=O)(=O)Nc1ccc(C(=O)Nc2ccc(-c3ccon3)c(N3CCC(F)(F)CC3)c2)c(N2CCC3(CC2)CC3)c1` [Example 36, N-(3-(4,4-difluoropiperidin-1-yl)-4-(isoxazol-3-yl)phenyl)-4-(ethylsulfonamido)-2-(6-azaspiro[2.5]octan-6-yl)benzamide], the figures for the pIC50 in the assay on OVCAR-3 cells and in the assay with HT-29 cells were 7.95 and 8.03, respectively.
